Patent publication US11723961B2, “Maspin, maspin derivatives, and maspin mimetics for reducing ROS, inflammation, and skin aging” (Northwestern University, priority 2014, dated 2023)

Legend:
[1] = system: TM40DNeo, TM40DMp and TM40DT cells; test: MTT in vitro cell proliferation assay with NAC treatment; type: cell-based, mouse
Description: MTT in vitro cell proliferation assay—Cells were seeded at 10^3 cells/well in 96—well plate and allowed to grow at 37° C. with 5% CO2. At each time point MTT (3-(4, 5-dimethylthiazolyl-2)-2, 5 diphenyltetrazolium bromide) reagent (5 mg/ml) was added in a volume of 10 μl per well and incubated at 37° C. with 5% CO2 for 3 hrs. The media was aspirated and 100 μl of DMSO was added and mixed until a uniform purple color was formed. The cell samples were measured using a plate reader at 570 nm. Assays were performed in triplicates.

[2] = system: pERK1/2 in TM40DNeo, TM40DMp and TM40DT cells; test: ERK1/2 phosphorylation (Western blot) with NAC treatment; type: cell-based, mouse
Description: ERK1/2 phosphorylation—Protein lysates (30 μg) were separated on 12% SDS-PAGE and phospho-plus kit was used to determine the ERK1/2 phosphorylation (Cat No. 9100, Cell Signaling Technology).

CC(=O)N[C@@H](CS)C(=O)O [NAC, N-acetyl cysteine]
proliferation rate ([1]; TM40DMp cells): no significant change | proliferation rate ([1]; TM40DNeo cells): significant drop | proliferation rate ([1]; TM40DT cells): significant drop | levels of activated pERK1/2 ([2]; TM40DMp cells): no change | levels of activated pERK1/2 ([2]; TM40DNeo cells): significantly reduced | levels of activated pERK1/2 ([2]; TM40DT cells): significantly reduced
